Patent US20090209536A1, “AMINOQUINAZOLINE CANNABINOID RECEPTOR MODULATORS FOR TREATMENT OF DISEASE” (KALYPSYS, INC., priority 2007, published 2009)
Like-named read-outs stand apart in the source and are kept apart here.

Key:
[1] = target: T1, human cannabinoid receptor type 2 (Homo sapiens, UniProt P34972); assay: Human CB2 Radioligand Binding Assay; details: membranes from stably transfected CHO CB2 cells
T1 construct: expressed in transfected cells; membrane preparation
Method in brief: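 Test compounds (10 uM final, or dose-response) competed with [3H]CP-55,940, used at the Kd determined per membrane lot, for binding to stable human CB2-CHO membranes over 90 min at 30° C in pH 7.4 Tris/EGTA/MgCl2/BSA buffer. GF/C filtration then scintillation counting; 100 nM CP-55,940 defined 100% efficacy.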

[2] = target: T2, human cannabinoid receptor type 1 (Homo sapiens, UniProt P21554); assay: Human CB1 Radioligand Binding Assay (basis of selectivity, CB2 vs. CB1); details: CB1: HEK 293 EBNA cells expressing human CB1; CB2: CHO CB2 membranes
T2 construct: purchased Perkin Elmer RBHCB1M; host or cells: HEK 293 EBNA cells
T2 sequence (P21554 whole entry): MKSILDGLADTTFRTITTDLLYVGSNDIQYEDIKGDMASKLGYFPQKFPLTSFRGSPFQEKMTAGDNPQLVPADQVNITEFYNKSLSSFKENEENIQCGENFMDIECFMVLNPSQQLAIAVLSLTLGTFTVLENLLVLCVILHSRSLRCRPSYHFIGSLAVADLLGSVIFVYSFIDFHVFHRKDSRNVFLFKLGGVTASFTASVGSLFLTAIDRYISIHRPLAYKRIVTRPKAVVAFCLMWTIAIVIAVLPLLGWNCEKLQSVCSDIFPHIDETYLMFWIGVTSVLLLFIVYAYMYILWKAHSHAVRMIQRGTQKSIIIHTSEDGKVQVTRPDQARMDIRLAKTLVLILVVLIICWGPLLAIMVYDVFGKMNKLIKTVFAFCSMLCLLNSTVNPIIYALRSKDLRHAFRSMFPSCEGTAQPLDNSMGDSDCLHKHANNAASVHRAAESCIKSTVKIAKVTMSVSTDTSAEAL
Protocol: 2. Human CB1 Radioligand Binding Assay
The incubation buffer was composed of 50 mM Tris-HCl pH 7.4, 2.5 mM EDTA, 5 mM MgCl2, 5.0 mg/ml fatty acid free BSA and the wash buffer was composed of 50 mM Tris-HCl pH 7.4, 2.5 mM EDTA, 5 mM MgCl2, 0.5 mg/ml fatty acid free BSA.

[3] = competition with [3H] CP-55,940, read-out: CB2 Ligand Binding Asssay EC50

T1 sequence (P34972 whole entry): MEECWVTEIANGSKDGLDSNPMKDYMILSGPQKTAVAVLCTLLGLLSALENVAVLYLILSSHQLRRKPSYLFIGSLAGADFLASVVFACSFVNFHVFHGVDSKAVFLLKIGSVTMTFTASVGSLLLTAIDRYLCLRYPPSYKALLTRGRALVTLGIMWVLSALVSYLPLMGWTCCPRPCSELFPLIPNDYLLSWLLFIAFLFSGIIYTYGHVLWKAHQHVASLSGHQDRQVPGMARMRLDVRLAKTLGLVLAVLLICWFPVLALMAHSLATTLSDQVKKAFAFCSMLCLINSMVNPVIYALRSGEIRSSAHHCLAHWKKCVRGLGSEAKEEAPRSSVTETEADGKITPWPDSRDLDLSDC

| Structure (SMILES) | EC50 [1, 3] [nM] | Selectivity, CB2 vs. CB1 [2] | EC50 ([1]; CB2 Ligand Binding Asssay EC50, competition with [3H] CP-55,940) [nM] |
| --- | --- | --- | --- |
| CCOC(=O)N1CCN(c2nc(-c3ccccc3Cl)nc3cc(C(=O)OC)ccc23)CC1 [Example 317, Methyl 2-(2-chlorophenyl)-4-(4-(ethoxycarbonyl)piperazin-1-yl)quinazoline-7-carboxylate] | > 1000 | − (− indicates ≦ 10−fold) | – |
| CCCS(=O)(=O)N1CCN(c2nc(-c3ccccc3Cl)nc3cccc(Cl)c23)CC1 [Example 285, 5-Chloro-2-(2-chlorophenyl)-4-(4-(propylsulfonyl)piperazin-1-yl)quinazoline] | > 1000 | − (− indicates ≦ 10−fold) | – |
| CCOC(=O)N1CCN(c2nc(-c3ccc(Cl)cc3)nc3ccc(OC(F)(F)F)cc23)CC1 [Example 223, Ethyl 4-(2-(4-chlorophenyl)-6-(trifluoromethoxy)quinazolin-4-yl)piperazine-1-carboxylate] | > 1000 | − (− indicates ≦ 10−fold) | – |
| Clc1ccc(-c2nc(NCc3ccccc3)c3ccccc3n2)c(Cl)c1 [Example 31, Benzyl[2-(2,4-dichlorophenyl)quinazolin-4-yl]amine] | > 1000 | − (− indicates ≦ 10−fold) | – |
| c1ccc(-c2nc(N3CCCCC3)c3ccccc3n2)cc1 [Example 52, 2-Phenyl-4-(piperidin-1-yl)quinazoline] | > 1000 | − (− indicates ≦ 10−fold) | – |
| Clc1ccccc1-c1nc(NCC2CC2)c2ccccc2n1 [Example 56, 2-(2-Chlorophenyl)-N-(cyclopropylmethyl)quinazolin-4-amine] | > 1000 | − (− indicates ≦ 10−fold) | – |
| Clc1ccccc1-c1nc(N2CCNCC2)c2ccccc2n1 [Example 82, 2-(2-Chlorophenyl)-4-piperazin-1-ylquinazoline] | > 1000 | − (− indicates ≦ 10−fold) | – |
| CC(=O)N1CCN(c2nc(-c3ccc(C(C)(C)C)cc3)nc3ccc(Cl)cc23)CC1 [Example 277, 1-(4-(2-(4-tert-Butylphenyl)-6-chloroquinazolin-4-yl)piperazin-1-yl)ethanone] | > 1000 | − (− indicates ≦ 10−fold) | – |
| O=C1CCCN1c1nc(-c2ccccc2Cl)nc2ccccc12 [Example 70, 1-(2-(2-Chlorophenyl)quinazolin-4-yl)pyrrolidin-2-one] | > 1000 | − (− indicates ≦ 10−fold) | – |
| O=C1CN(c2nc(-c3ccccc3Cl)nc3ccccc23)CCN1 [Example 72, 4-(2-(2-Chlorophenyl)quinazolin-4-yl)piperazin-2-one] | > 1000 | − (− indicates ≦ 10−fold) | – |
| CN(Cc1ccccc1)c1nc(-c2ccc(Cl)cc2Cl)nc2ccccc12 [Example 32, N-Benzyl-2-(2,4-dichlorophenyl)-N-methylquinazolin-4-amine] | > 1000 | − (− indicates ≦ 10−fold) | – |
| Clc1ccc(-c2nc(N3CCCCC3)c3ccccc3n2)cc1 [Example 127, 2-(4-Chlorophenyl)-4-(piperidin-1-yl)quinazoline] | > 1000 | − (− indicates ≦ 10−fold) | – |
| Cn1ccnc1C(=O)N1CCN(c2nc(-c3ccccc3Cl)nc3ccccc23)CC1 [Example 263, (4-(2-(2-chlorophenyl)quinazolin-4-yl)piperazin-1-yl)(1-methyl-1H-imidazol-2-yl)methanone] | > 1000 | − (− indicates ≦ 10−fold) | – |
| CCCNC(=O)N1CCN(c2nc(-c3ccccc3Cl)nc3cccc(Cl)c23)CC1 [Example 284, 4-(5-Chloro-2-(2-chlorophenyl)quinazolin-4-yl)-N-propylpiperazine-1-carboxamide] | > 1000 | − (− indicates ≦ 10−fold) | – |
| CCOC(=O)N1CCN(c2nc(-c3ccc(Cl)cc3)nc3ccccc23)CC1 [Example 200, Ethyl 4-(2-(4-chlorophenyl)quinazolin-4-yl)piperazine-1-carboxylate] | > 1000 | − (− indicates ≦ 10−fold) | – |
| Clc1ccc2c(N3CCOCC3)nc(C3CCCCC3)nc2c1 [Example 165, 4-(7-Chloro-2-cyclohexylquinazolin-4-yl)morpholine] | – | + (+ indicates > 10−fold) | > 1000 |
| Clc1ccc(-c2nc(NCc3ccccc3)c3ccccc3n2)cc1 [Example 121, N-Benzyl-2-(4-chlorophenyl)quinazolin-4-amine] | > 1000 | − (− indicates ≦ 10−fold) | – |
| COc1ccc2nc(-c3ccc(C(C)(C)C)cc3)nc(N3CCN(C(C)=O)CC3)c2c1 [Example 249, 1-(4-(2-(4-tert-Butylphenyl)-6-methoxyquinazolin-4-yl)piperazin-1-yl)ethanone] | < 1000 | + (+ indicates > 10−fold) | – |
| CC(=O)N1CCN(c2nc(-c3ccccc3Cl)nc3cccc(C(F)(F)F)c23)CC1 [Example 240, 1-(4-(2-(2-Chlorophenyl)-5-(trifluoromethyl)quinazolin-4-yl)piperazin-1-yl)ethanone] | < 1000 | + (+ indicates > 10−fold) | – |

Second part, led by results:

| EC50 [1, 3] [nM] | Selectivity, CB2 vs. CB1 [2] | Structure (SMILES) | EC50 ([1]; CB2 Ligand Binding Asssay EC50, competition with [3H] CP-55,940) [nM] |
| --- | --- | --- | --- |
| < 1000 | + (+ indicates > 10−fold) | Cc1cccc2c(N3CCCC3)nc(CNS(=O)(=O)c3cccc4ccccc34)nc12 [Example 2, N-((8-Methyl-4-(pyrrolidin-1-yl)quinazolin-2-yl)methyl)naphthalene-1-sulfonamide] | – |
| < 1000 | + (+ indicates > 10−fold) | Clc1ccc2c(N3CCCCC3)nc(C3CCCCC3)nc2c1 [Example 164, 7-Chloro-2-cyclohexyl-4-(piperidin-1-yl)quinazoline] | – |
| < 1000 | + (+ indicates > 10−fold) | CCOC(=O)N1CCN(c2nc(-c3ccccc3Cl)nc3ccc(C(C)(C)C)cc23)CC1 [Example 219, Ethyl 4-(6-tert-butyl-2-(2-chlorophenyl)quinazolin-4-yl)piperazine-1-carboxylate] | – |
| < 1000 | + (+ indicates > 10−fold) | CCOC(=O)N1CCN(c2nc(-c3ccccc3Cl)nc3ccc(OC)cc23)CC1 [Example 217, Ethyl 4-(2-(2-chlorophenyl)-6-methoxyquinazolin-4-yl)piperazine-1-carboxylate] | – |
| < 1000 | + (+ indicates > 10−fold) | O=S(=O)(NCc1nc(N2CCCC2)c2ccccc2n1)c1ccccc1 [Example 3, N-((4-(Pyrrolidin-1-yl)quinazolin-2-yl)methyl)benzenesulfonamide] | – |
| < 1000 | + (+ indicates > 10−fold) | COc1ccc2nc(-c3ccccc3Cl)nc(N3CCSCC3)c2c1 [Example 172, 4-(2-(2-Chlorophenyl)-6-methoxyquinazolin-4-yl)thiomorpholine] | – |
| < 1000 | − (− indicates ≦ 10−fold) | CC(=O)N1CCN(c2nc(-c3ccccc3Cl)nc3cccc(C)c23)CC1 [Example 254, 1-(4-(2-(2-Chlorophenyl)-5-methylquinazolin-4-yl)piperazin-1-yl)ethanone] | – |
| < 1000 | + (+ indicates > 10−fold) | CCOC(=O)N1CCN(c2nc(C3CCCCC3)nc3ccc(Cl)cc23)CC1 [Example 221, Ethyl 4-(6-chloro-2-cyclohexylquinazolin-4-yl)piperazine-1-carboxylate] | – |
| < 1000 | + (+ indicates > 10−fold) | CN1CCN(c2nc(CNS(=O)(=O)c3cccc4ccccc34)nc3ccccc23)CC1 [Example 5, N-((4-(4-Methylpiperazin-1-yl)quinazolin-2-yl)methyl)naphthalene-1-sulfonamide] | – |
| < 1000 | + (+ indicates > 10−fold) | CC(C)(C)c1ccc(Nc2nc(-c3ccc(F)c(F)c3)nc3ccccc23)cc1 [Example 20, N-(4-tert-Butylphenyl)-2-(3,4-difluorophenyl)quinazolin-4-amine] | – |
| < 1000 | − (− indicates ≦ 10−fold) | COc1ccc2nc(-c3ccccc3Cl)nc(N3CCCCC3)c2c1 [Example 178, 2-(2-Chlorophenyl)-6-methoxy-4-(piperidin-1-yl)quinazoline] | – |
| < 1000 | − (− indicates ≦ 10−fold) | c1ccc2c(N3CCCCC3)nc(C3CCCCC3)nc2c1 [Example 34, 2-Cyclohexyl-4-(piperidin-1-yl)quinazolines] | – |
| < 1000 | − (− indicates ≦ 10−fold) | Clc1ccccc1-c1nc(N2CCSCC2)c2ccccc2n1 [Example 68, 2-(2-Chlorophenyl)-4-thiomorpholin-4-ylquinazoline] | – |
| < 1000 | − (− indicates ≦ 10−fold) | CC(C)(C)c1ccc(-c2nc(N3CCCCC3)c3ccccc3n2)cc1 [Example 111, 2-(4-tert-Butylphenyl)-4-(piperidin-1-yl)quinazoline] | – |
| < 1000 | + (+ indicates > 10−fold) | CN1CCN(c2nc(-c3ccccc3Cl)nc3ccc(Cl)cc23)CC1 [Example 208, 6-Chloro-2-(2-chlorophenyl)-4-(4-methylpiperazin-1-yl)quinazoline] | – |
| < 1000 | − (− indicates ≦ 10−fold) | CC(=O)N1CCN(c2nc(C3CCCCC3)nc3ccc(Cl)cc23)CC1 [Example 185, 1-(4-(6-Chloro-2-cyclohexylquinazolin-4-yl)piperazin-1-yl)ethanone] | – |
